In article PMC13510729, “Multiheme selenoenzyme essential for elemental sulfur respiration” (Science Advances, 2026) one finds Km data, which are given here for one molecule.

This assay has as its system T1, MccSep.
T1 construct: selenoprotein read through an in-frame UGA (Sec325) joining gsu2937 and gsu2936, databases may hold it as two ORFs; C-terminal Factor Xa site and Strep-tag; expressed in G. sulfurreducens PCA delta-mccsep; five heme c per subunit; about 49 kDa; homotetramer of 200 kDa
In words: spectrophotometric oxidation of reduced methyl viologen at […] nm, allosteric sigmoidal fit. The format is biochemical, Geobacter sulfurreducens. The note with it: reduced methyl viologen (0.3 mM) with 0.075 mM dithionite, 2 mM CaCl2, 50 mM Bicine-NaOH pH 8.5, 30 °C, anaerobic; Hill coefficient 1.5 ± 0.1; read-out: apparent K0.5.

In the case of `O=[Se](O)O` [selenite], the Km came to 990 ± 40 µM.
